The values that follow come from ChEMBL document CHEMBL1201862, “PubChem BioAssay data set” (2004).

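How tested: cells in 96-well plates exposed to compound for 48 hours at five concentrations. GI50: concentration for 50% inhibition of growth.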 Active and inactive are the calls of the source. No stated cut-off is given here; in the data, active = GI50 up to about 1.1 µM and inactive = higher.

What all share (assay): inhibition of tumour cell growth, NCI panel, 48 h
Assay [1] relates to SNB-19.
Assay [2] has as its system HOP-92.
Assay [3] concerns K562.
The subject of assay [4] is EKVX.
Assay [5] has as its system HCT-116.
Assay [6] concerns UACC-62.
Assay [7] concerns HCT-15.
The subject of assay [8] is SK-MEL-2.
Assay [9] deals with COLO 205.
Assay [10] concerns OVCAR-3.
Assay [11] concerns U-251.
The test system of assay [12] is RXF 393.
The test system of assay [13] is SW-620.
The test system of assay [14] is SK-MEL-28.
Assay [15] relates to SF-268.
In assay [16] the test system is UACC-257.
Assay [17] concerns ACHN.
Assay [18] has as its system PC-3.
Assay [19] concerns MDA-MB-435.

As for `Cc1cc(N)c2cc(NC(=O)CCCCCCCCC(=O)Nc3ccc4nc(C)cc(N)c4c3)ccc2n1`, the GI50 in assay [1] was > 38.4 µM (inactive); in assay [2], 33.7 µM (inactive); in assay [3] it was 16.9 µM (inactive); in assay [4], 36.3 µM (inactive); in [5], 5.07 µM (inactive); in assay [6] it was > 77.3 µM (inactive). Also, the GI50 in assay [7] is greater than 100 µM; in assay [8] it was > 100 µM (inactive); in assay [9], 18.1 µM (inactive); in assay [10] it was 98.6 µM (inactive); in [11], 18.4 µM (inactive); in assay [12] it was > 65.3 µM (inactive). For the same molecule, the GI50 in assay [13] is 27.9 µM (inactive); in assay [14], 42.8 µM (inactive); in assay [15] it was 29.6 µM (inactive); in assay [16], > 50.4 µM (inactive); in assay [17], 69.5 µM (inactive).

With `C=C(C)C1CC(=O)C(C)=C(O)C1` (stereo unspecified), the GI50 in assay [1], in [3], in [4], in [5], in assay [18] and in assay [6] was > 100 µM (inactive) in each case. Besides, the GI50 in assay [7] is greater than 100 µM; in [8] it was > 100 µM (inactive); in [9] it was > 100 µM (inactive); in assay [11], > 100 µM (inactive); in assay [13] it was > 100 µM (inactive); in assay [14] it was > 100 µM (inactive). For the same molecule, the GI50 in assay [15], in assay [16] and in assay [17] was > 100 µM (inactive) throughout.

As to `Cc1ccc(C(=O)N/N=C(\N=N\c2ccccc2C(=O)O)c2ccc(N(C)C)cc2)cc1`, the GI50 in [1] was 55.3 µM (inactive); in assay [2] it was > 100 µM (inactive); in assay [3] it was 35.8 µM (inactive); in assay [4], 75.2 µM (inactive); in assay [5] it was > 100 µM (inactive); in [18] it was > 100 µM (inactive). For the same molecule, the GI50 is 64.7 µM in assay [7]; > 100 µM (inactive) in assay [8]; 22.9 µM (inactive) in [19]; 35.2 µM (inactive) in [9]; 22.2 µM (inactive) in [10]; > 100 µM (inactive) in assay [11]. In addition, the GI50 in assay [13], in [14], in assay [15] and in assay [16] was > 100 µM (inactive) throughout.

`NC1=C(N2CCOCC2)C(=O)NC2=N/C(=C\c3ccccc3)C(=O)N21`: the GI50 was > 100 µM (inactive) in assay [1]; > 100 µM (inactive) in assay [2]; 26.1 µM (inactive) in [3]; > 100 µM (inactive) in assay [4]; > 100 µM (inactive) in assay [5]; 84.3 µM in [7]. Also, the GI50 in assay [19], in assay [9], in [11], in [12], in assay [13] and in assay [14] was > 100 µM (inactive) each time. In addition, the GI50 in assay [15], in [16] and in assay [17] was > 100 µM (inactive) in each case.

Take `Cc1nc2c(n1CCC(C)C)C(=O)c1ccccc1C2=O`: the GI50 is 39.7 µM (inactive) in assay [1]; 8.07 µM (inactive) in assay [3]; 29.7 µM (inactive) in [4]; 6.84 µM (inactive) in [5]; 12.2 µM (inactive) in assay [6]; 11.9 µM in [7]. In addition, the GI50 is 17.5 µM (inactive) in [8]; 14.3 µM (inactive) in [9]; 23.5 µM (inactive) in assay [10]; 12.7 µM (inactive) in [11]; 23.4 µM (inactive) in [12]; 37.9 µM (inactive) in [13]. Further, the GI50 was 17.3 µM (inactive) in [14], 14.3 µM (inactive) in assay [15], 27.7 µM (inactive) in assay [16] and 29.9 µM (inactive) in assay [17].

As to `Cc1cc2nc3c(C#N)c(-c4ccccc4)cc(Nc4ccc(Cl)cc4)n3c2cc1C`, the GI50 in assay [1] is > 100 µM (inactive); in assay [4] it was 8.22 µM (inactive); in [5], > 100 µM (inactive); in assay [18], > 100 µM (inactive); in assay [7] it was greater than 100 µM; in assay [8], > 100 µM (inactive). The GI50 in [19] is > 100 µM (inactive); in [9] it was > 100 µM (inactive); in [10] it was 6.05 µM (inactive); in assay [11], 15.9 µM (inactive); in assay [12], > 100 µM (inactive); in [13], > 100 µM (inactive). Also, the GI50 was > 100 µM (inactive) in [14], 51.6 µM (inactive) in [15], > 100 µM (inactive) in assay [16] and > 100 µM (inactive) in assay [17].

For the molecule `CCOc1nc2sc3c(c2c(=O)n1CCSSCCn1c(OCC)nc2sc4c(c2c1=O)CCCC4)CCCC3`, the GI50 in assay [1], in [3], in assay [4], in assay [5], in [18] and in [6] was > 100 µM (inactive) throughout. The GI50 in assay [7] was greater than 100 µM; in assay [8] it was > 100 µM (inactive); in [19] it was > 100 µM (inactive); in assay [9], > 100 µM (inactive); in assay [10], > 100 µM (inactive); in assay [11], > 100 µM (inactive). The GI50 in assay [13], in [14], in assay [15], in assay [16] and in assay [17] was > 100 µM (inactive) throughout.

Turning to `CC(C1CCCC1=O)C1CCCC1=O` (stereo unspecified), the GI50 in [1], in [3], in assay [4], in assay [5], in [18] and in [6] was > 100 µM (inactive) in each case. Further, the GI50 in [7] is greater than 100 µM; in assay [8], > 100 µM (inactive); in [9], > 100 µM (inactive); in assay [11], > 100 µM (inactive); in assay [12] it was > 100 µM (inactive); in assay [13], > 100 µM (inactive). Further, the GI50 in assay [14], in [15], in assay [16] and in [17] was > 100 µM (inactive) throughout.

On to `O=C(c1cccs1)N(C(=O)N1CCC(c2ccccc2)CC1)c1ccccc1`, for which the GI50 in [1] was > 100 µM (inactive); in assay [3] it was 22.7 µM (inactive); in assay [4], 7.67 µM (inactive); in [5] it was 42.5 µM (inactive); in assay [18], 0.873 µM (active); in [6], 50.6 µM (inactive). The GI50 in assay [7] was 28.1 µM; in assay [8] it was 13.8 µM (inactive); in assay [19], 29.4 µM (inactive); in assay [9], 27.2 µM (inactive); in [10], 53.6 µM (inactive); in [11] it was 46 µM (inactive). The GI50 in [12] was 16.8 µM (inactive); in assay [13], 51.5 µM (inactive); in assay [14], 43.9 µM (inactive); in assay [15] it was 73.6 µM (inactive); in assay [16], 40 µM (inactive); in assay [17], 63.1 µM (inactive).

For `O=C(Sc1c(-c2ccccc2)c(=O)n(-c2ccccc2)c(=S)n1-c1ccccc1)c1ccc(Cl)cc1`, the GI50 in assay [1] is > 100 µM (inactive); in [2], 55.6 µM (inactive); in [3] it was 75 µM (inactive); in assay [4], > 100 µM (inactive); in [5], > 100 µM (inactive); in assay [6], > 100 µM (inactive). Further, the GI50 is greater than 100 µM in [7]; > 100 µM (inactive) in assay [19]; > 100 µM (inactive) in assay [9]; > 100 µM (inactive) in [10]; > 100 µM (inactive) in assay [11]; > 100 µM (inactive) in [12]. In addition, the GI50 in assay [13], in [14], in assay [15], in assay [16] and in assay [17] was > 100 µM (inactive) in each case.

For `COc1ccc(-c2onc(-c3ccc([N+](=O)[O-])cc3)c2C2=NCCN2)cc1`, the GI50 was 50.5 µM (inactive) in assay [1]; > 100 µM (inactive) in [3]; > 100 µM (inactive) in [4]; 36 µM (inactive) in assay [5]; > 100 µM (inactive) in assay [6]; greater than 100 µM in [7]. Besides, the GI50 was > 100 µM (inactive) in [8]; > 100 µM (inactive) in assay [9]; > 100 µM (inactive) in assay [10]; 67.6 µM (inactive) in assay [11]; 32.3 µM (inactive) in assay [12]; > 100 µM (inactive) in assay [13]. Also, the GI50 in [14] is > 100 µM (inactive); in assay [15], 72.3 µM (inactive); in assay [16], 18.5 µM (inactive); in [17], 38.1 µM (inactive).

As for `COCOCc1cc(OCc2ccccc2)c(OC)cc1Br`, the GI50 in assay [1] is > 100 µM (inactive); in assay [2], > 100 µM (inactive); in [3], 63.8 µM (inactive); in assay [4] it was > 100 µM (inactive); in assay [5], > 100 µM (inactive); in assay [6], 71.9 µM (inactive). For the same molecule, the GI50 in assay [7] was 40.9 µM; in assay [8], > 100 µM (inactive); in assay [9], > 100 µM (inactive); in [10], > 100 µM (inactive); in assay [11], > 100 µM (inactive); in assay [12], 47.4 µM (inactive). Besides, the GI50 in assay [13] is > 100 µM (inactive); in assay [14] it was > 100 µM (inactive); in assay [15], 84.9 µM (inactive); in [16], > 100 µM (inactive); in assay [17], 82.6 µM (inactive).
